The text below walks through data of US12344623B2, “Thiazolopyridine derivatives as adenosine receptor antagonists” (Merck Patent GmbH, priority 2019, dated 2025).

One series concerns human T cells. Description: hTcell data, IL-2 (human T cells, IL-2 readout; method not given). It is filed as cell-based. To be noted: compounds of the present invention.
A further series concerns the target human A2A receptor (Homo sapiens, UniProt P29274). The series is described as follows: Human T cells, endogenous A2A receptor, cAMP, agonist NECA. It is filed as cell-based. To be noted: read-out: hTcell data, cAMP, IC50. A digest of the protocol:
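Pan T cells isolated from fresh human blood PBMC, endogenously expressing Gs-coupled A2A, treated with compounds. Cellular cAMP measured by HTRF after 1 h; data normalized to inhibitor control and DMSO neutral control, then curve-fitted.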

Series [1] concerns mouse Pan T cells. The series is described as follows: mTcell assay, IL-2, rescue of cytokine secretion, agonist NECA. It is filed as cell-based. To be noted: mouse Pan T cells, CD3/CD28 activated, NECA 1 μM, IL-2 rescue, 24 h. The text has this:
Adenosine (Ado) in tumor microenvironment can inhibit T cell activity by signaling through A2A receptors and suppress cytokine secretion by T cells. […] Potential A2A antagonists or A2A/A2B dual antagonists can rescue T cells from this inhibition. Herein, we describe the in vitro system we established using Pan T cells from mouse spleens to screen potential A2A antagonists or A2A/A2B dual antagonists for their activity. The method described involves the use of CD3/CD28 pre-coated beads to stimulate Pan T cells purified from mouse splenocytes, combined with the addition of A2A agonist along with potential A2A or A2A/A2B dual antagonists to evaluate potentiation of T cell cytokine production.
Briefly, mouse Pan T cells are purified from spleens of BALB/c mice using Pan T cell isolation kit Mouse II (MACS Miltenyi biotech Cat # Order no. 130-095-130) according to manufacturer's protocol. The purified T cells are seeded in Nunc™ 96-Well Polystyrene Round Bottom Microwell Plates in RPMI medium with 10% heat inactivated fetal bovine serum. The cells are rested at 37° C. for 1 h before activating with CD3/CD28 pre-coated beads (Dynabeads™ Mouse T-Activator CD3/CD28; Cat #11456D). After 30 min the cells are treated with varying doses of test antagonist(s). […] After 24 h incubation IL-2 levels in the supernatants are measured by ELISAs according to manufacturer's protocol (R&D systems Cat #DY402 (IL-2)). Once the concentrations are calculated, the difference of cytokine concentration of DMSO control and agonist alone control is calculated and the percentage of rescue by each concentration of antagonist is calculated by using Microsoft Excel. These percentages of cytokine rescue in a dose dependent manner of antagonist is plotted in GraphPad Prism software and IC50 is calculated.

The subject of series [2] is mouse Pan T cells. The series is described as follows: mTcell assay, cAMP, agonist NECA. It is filed as cell-based. To be noted: mouse Pan T cells, agonist NECA 1 uM. A digest of the protocol:
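Mouse splenic Pan T cells, pre-activated 48 hours with anti-CD3/CD28 beads, then plated at 50,000 cells/well in serum-free medium with 0.1% BSA. Compounds tested in 10-point dose response from 10 uM; after 30 minutes at 37° C, cAMP measured by HTRF.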

A short description of series [3]: Pharmacokinetic properties in mouse after single intravenous and oral administration. It is filed as in vivo. On the procedure:
The objective of the study was to obtain information on the pharmacokinetic properties of the compounds of the present invention in female Wistar rats/mice following single intravenous and oral administration.
Female Wistar rats/mice (n=6) received either a single intravenous (bolus) injection or an oral administration (by gavage) of the tested compound. Doses of 0.2 and 10 mg/kg (per compound) were given intravenously and per os, respectively, as a solution in DMSO (0.2%)/PEG 200 (40%)/water for iv administration and as a suspension in Methocel (0.5%)/Tween 20 (0.25%) in water for oral dosing. Consecutive blood samples were taken sub-lingually under isoflurane inhalation from 3 animals per route of administration after 0.1 (only iv), 0.25 (only po), 0.5, 1, 2, 4, 6 and 24 h and were further processed to obtain plasma. Also, urine and feces samples of 3 rats per route of administration were collected over the time interval from 0-24 h and were pooled for analysis.
The concentrations of the compounds in plasma, feces were quantified using an UPLC method with tandem mass spectrometric detection (LC-MS/MS) previously developed at the ‘Institute of Drug Metabolism and Pharmacokinetics’. The LCMS/MS system consisted of a Waters Acquity UPLC coupled to an AB Sciex mass spectrometer API 5500 Q-trap. The UPLC separation was carried out on a reversed phase column (HSS T3, […], 2.1×50 mm) using a mobile phase gradient with 0.1% formic acid and acetonitrile as eluents. The detection of the compounds was performed using multiple reaction monitoring in the positive ionization mode. Plasma samples were spiked with internal standard (20 μl) and the analyte was extracted from the matrix using tertiary-butyl methyl ether (tBME). The organic phase was evaporated to dryness under a stream of nitrogen. The residue was dissolved in acetonitrile/0.1% formic acid for LC-MS/MS analysis. Feces samples were homogenized with 4-times their volume of an ethanol/water mixture (4:1, v/v). Aliquots of the aqueous-ethanolic extracts were spiked with internal standard, diluted with acetonitrile/water (1:1, v/v) and directly injected into the LC-MS/MS system.
Pharmacokinetic parameters Cmax and tmax were taken from the observed data. […] AUC values were calculated by non-compartmental analysis using the linear up/log down method. Numerical data for mean plasma concentrations and derived pharmacokinetic parameters were rounded to 3 significant digits for presentation.

pIC50: −log10 of the molar value.

human A2A receptor, sequence (P29274 whole entry): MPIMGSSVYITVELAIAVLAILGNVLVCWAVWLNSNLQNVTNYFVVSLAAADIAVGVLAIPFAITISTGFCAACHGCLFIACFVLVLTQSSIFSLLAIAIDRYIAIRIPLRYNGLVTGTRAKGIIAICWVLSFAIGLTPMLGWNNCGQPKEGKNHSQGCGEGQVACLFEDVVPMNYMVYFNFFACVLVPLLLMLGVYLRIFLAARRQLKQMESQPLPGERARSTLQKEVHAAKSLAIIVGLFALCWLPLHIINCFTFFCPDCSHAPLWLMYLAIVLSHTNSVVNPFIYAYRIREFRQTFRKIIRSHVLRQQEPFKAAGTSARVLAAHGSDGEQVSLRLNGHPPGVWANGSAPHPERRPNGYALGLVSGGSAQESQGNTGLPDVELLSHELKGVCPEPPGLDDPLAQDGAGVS

Turning to `COc1ncc(C2=CCOCC2)c2sc(NC(=O)N3CC[C@@]4(CCCOC4)C3)nc12` [Compound 25, (S)-7-Oxa-2-aza-spiro[4.5]decane-2-carboxylic acid [7-(3,6-dihydro-2H-pyran-4-yl)-4-methoxy-thiazolo[4,5-c]pyridin-2-yl]-amide], the pIC50 in the series with human T cells, on human A2A receptor, in the series on mouse Pan T cells [1] and in the series with mouse Pan T cells [2] was more than 8.00 throughout. The Feces iv in series [3] (@0.2 (mg/kg), % of dose excreted in feces) is 22@0.2%. The same compound gave a clearance in series [3] (female, plasma, 0.2 mg/kg) of 77.5 mL/min/kg. The Cmax (commonly the peak of the concentration-time curve) in series [3] (female, plasma, 0.2 mg/kg, dose-normalized to 1 mg/kg) worked out at 500 ng/mL. In series [3] (female, plasma, 0.2 mg/kg, read-out: Vss), the Vd turned out to be 3.16 L/kg. The half-life in series [3] (female, plasma, 0.2 mg/kg, read-out: t½ (converted)) was 54.6 min.
